The subject of experiment [1] is Jurkat. Nature of the experiment: Ratio of IC50 against Jurkat human leukemia amsacrine-resistant cells (JLA) to Jurkat human leukemia cells (JLC). It counts as functional.
Experiment [2] deals with P388. Nature of the experiment: Inhibitory activity against P388 murine leukemia cells. It counts as functional, cell-based. The settings on record: Mus musculus.
Experiment [3] has as its system Jurkat. Nature of the experiment: Inhibitory activity against Jurkat human leukemia cells. It counts as functional, cell-based.
The subject of experiment [4] is Lewis lung carcinoma cell line. Nature of the experiment: Inhibitory activity against Lewis lung carcinoma cells. It counts as functional, cell-based. Conditions: Mus musculus.
Experiment [5] concerns Jurkat. Nature of the experiment: Ratio of IC50 against Jurkat human leukemia doxorubicin-resistant cells (JLD) to Jurkat human leukemia cells (JLC). It counts as functional.

Each structure is given as a SMILES string.

For the compound `Cc1cc2c3c(cccc3n1)C(=O)c1cccc(C(=O)NCCN(C)C)c1-2`, the IC50 ratio in experiment [1] and in experiment [5] was 2.5 each time. The concentration for half-maximal inhibition (IC50) amounted to 100 nM in experiment [2], 424 nM in experiment [3] and 101 nM in experiment [4].
Take `Cc1cc2c3c(cccc3n1)C(=O)c1c(C(=O)NCCN(C)C)cccc1-2`: the IC50 ratio was 1 in experiment [1] and 1.1 in experiment [5]. In addition, the IC50 was 6600 nM in experiment [2], 1420 nM in experiment [3] and 1790 nM in experiment [4].
In the case of `Cc1cc2c3c(ccc(C(=O)NCCN(C)C)c3n1)C(=O)c1ccccc1-2`, the values for the IC50 ratio in experiment [1] and in experiment [5] were 1.2 and 1, respectively. Moreover, the IC50 worked out at 890 nM in experiment [2], 717 nM in experiment [3] and 717 nM in experiment [4].
As to `CN(C)CC/N=C/c1cc2c3c(cccc3n1)C(=O)c1ccccc1-2`, the figures for the IC50 ratio in experiment [1] and in experiment [5] were 0.6 and 0.8, respectively. The IC50 amounted to 6200 nM in experiment [2], 3360 nM in experiment [3] and 2480 nM in experiment [4].
Turning to `CN(C)CCNC(=O)c1nc2c3c(cccc3n1)C(=O)c1ccccc1-2`, the figures for the IC50 ratio in experiment [1] and in experiment [5] were 1 and 0.9, respectively. The IC50 amounted to 1500 nM in experiment [2], 1240 nM in experiment [3] and 1030 nM in experiment [4].
For `CN(CCNC(=O)c1cc2c3c(cccc3n1)C(=O)c1ccccc1-2)CCN(C)CCNC(=O)c1cc2c3c(cccc3n1)C(=O)c1ccccc1-2`, in that order: 0.2, 0.8, 790 nM, 566 nM and 472 nM.
With `CN(C)CCNC(=O)c1cc2c3c(ccc(Cl)c3n1)C(=O)c1c(C(=O)NCCN(C)C)cccc1-2`, the IC50 ratio was found to be 0.9 in experiment [1] and 1.6 in experiment [5]. The figures for the half-maximal inhibitory concentration (IC50) in experiment [2], in experiment [3] and in experiment [4] were 5800 nM, 800 nM and 200 nM, respectively.
With `O=C1c2ccccc2-c2cc(/C=N/NC3=NCCN3)nc3cccc1c23`, the figures for the IC50 ratio in experiment [1] and in experiment [5] were 1 and 1.1, respectively. For the same compound, the IC50 in experiment [2] worked out at 340 nM; in experiment [3], 422 nM; in experiment [4] it was 830 nM.
Take `CN(C)CC(CN(C)C)c1cc2c3c(cccc3n1)C(=O)c1ccccc1-2`: the IC50 ratio in experiment [1] was determined as 0.8; in experiment [5], 1. The IC50 in experiment [2] came to 110 nM; in experiment [3], 550 nM; in experiment [4], 98 nM.
The matching figures for `CN(C)CCNC(=O)c1cc2c3c(cccc3n1)C(=O)c1c(Cl)cccc1-2`: 1, 0.9, 800 nM, 758 nM and 483 nM.
With `CN(C)CCc1cc2c3c(cccc3n1)C(=O)c1ccccc1-2`, the IC50 ratio in experiment [1] and in experiment [5] was 0.8 throughout. Further, the figures for the IC50 in experiment [2], in experiment [3] and in experiment [4] were 2300 nM, 1010 nM and 887 nM, respectively.
For `CN(C)CCNc1nc2c3c(cccc3n1)C(=O)c1ccccc1-2`, the IC50 ratio in experiment [1] and in experiment [5] was 0.7 throughout. The figures for the 50% inhibitory concentration (IC50) in experiment [2], in experiment [3] and in experiment [4] were 1000 nM, 860 nM and 525 nM, respectively.
Turning to `CN(C)CCNc1cc2c3c(cccc3n1)C(=O)c1ccccc1-2`, the IC50 ratio amounted to 0.8 in experiment [1] and 0.9 in experiment [5]. Besides, the IC50 in experiment [2] turned out to be 1300 nM; in experiment [3] it was 1160 nM; in experiment [4], 1080 nM.
As to `CN(C)CCNC(=O)c1cc2c3c(cccc3n1)C(=O)c1ccccc1-2`, the IC50 ratio was determined as 0.2 in experiment [1] and 0.8 in experiment [5]. Further, the IC50 in experiment [2] turned out to be 600 nM; in experiment [3] it was 165 nM; in experiment [4] it was 35 nM.
As to `CN(C)CCNC(=O)c1cc2c3c(cccc3n1)C(=O)c1cccc(Cl)c1-2`, the IC50 ratio is given as 0.7 in experiment [1] and 0.8 in experiment [5]. Also, the IC50 in experiment [2] turned out to be 130 nM; in experiment [3], 238 nM; in experiment [4], 128 nM.
Consider `COc1cc(NS(C)(=O)=O)ccc1Nc1c2ccccc2nc2ccccc12` [AMSACRINE], for which the IC50 ratio in experiment [1] turned out to be 85; in experiment [5] it was 74.
Consider `CC[C@@]1(O)C(=O)OCc2c1cc1n(c2=O)Cc2cc3ccccc3nc2-1` [CAMPTOTHECIN], for which the IC50 ratio in experiment [1] came out at 2; in experiment [5], 1.4. Also, the values for the IC50 in experiment [2], in experiment [3] and in experiment [4] were 13 nM, 5.6 nM and 33 nM, respectively.

For the origin of these results see ChEMBL document CHEMBL1134504, “Synthesis and cytotoxic activity of 7-oxo-7H-dibenz[f,ij]isoquinoline and 7-oxo-7H-benzo[e]perimidine derivatives” (J Med Chem, 2001).
